The record followed here is patent publication US20240165196A1, “Beta-Lactamase Inhibitors” (VIB VZW, priority 2021, published 2024).

In data set [1] the test system is TEM beta-lactamase in E. coli UZ_TEM104. In words: western blot of inclusion body (IB) fraction for TEM. It counts as cell-based. Particulars: 12 μM peptide in PBS, 120 min. As to the method: (§1) FIGS. 3A-3P. […] Three replicates are shown for each condition. […] A single representative image is shown. […] Three replicates are shown for each condition. (FIG. 3E) [Left] […] [Middle] […] [Right] […] A single representative image is shown. […] A single representative image is shown. […] A single representative image is shown. […] A single representative blot is shown. […] 106 cells were analysed for the plot.
(§2) Moreover, we confirmed the presence of the protein in the correct band using mass spectrometry proteomics. We repeated this with a strain expressing SHV-154, blotting with a polyclonal rabbit antibody raised against the recombinant SHV enzyme described above (FIG. 3K).
(§3) The overnight culture of bacteria was centrifuged for 30 min at 4,000×g and cells were washed with physiological water (NaCl 0.9%). Bacterial cells were treated by peptide at the appropriate concentration for at least 2 h at 37 C. The bacterial pellets were washed with 10 mL buffer A (50 mM HEPES, pH 7.5, 300 mM NaCl, 5 mM β-mercaptoethanol, 1.0 mM EDTA) and centrifuged at 4° C. for 30 min at 4,000×g. The supernatant was discarded and 20 mL of buffer B (buffer A plus 1 tablet of the protease and phosphatase Inhibitor Cocktail (ab201119, Abcam, UK) was added to the bacterial pellet. In order to break the cells, a High-Pressure Homogenizer (Glen Creston Ltd) with the pressure set to 20,000-25,000 psi was used on ice, and in addition, the suspensions were sonicated (Branson Digital sonifier 50/60 Hz) on ice with alternating 2 min cycle (15 pulses at 50% power with 30 s pauses on ice, until completing 2 min total sonication time). The lysed cells were centrifuged at 4° C. for 30 min at 11,000×g. The precipitated fraction was afterward re-suspended with 10 mL buffer D (buffer A plus 0.8% (V/V) Triton X-100, 0.1% sodium deoxycholate) and the suspension was sonicated to ensure the pellet is completely dissolved. This step was repeated three times. Centrifugation was performed at 4° C. for 30 min at 11,000×g. Finally, to solubilize IBs, the pellet was suspended in 500 ul of buffer F (50 mM HEPES, pH 7.5, 8.0 M urea) of precipitated fraction.
Background: A western blot detects proteins with antibodies after separation by electrophoresis.

Data set [2] deals with SHV beta-lactamase in strain expressing SHV-154. The experiment in a line: western blot of inclusion body (IB) fraction for SHV. Particulars: 12 μM peptide in PBS, 120 min. It counts as cell-based, E. coli. As to the method: as §1, §2, §3
Another data set deals with E. coli SHV-11. The experiment in a line: checkerboard assay (FICI), peptide versus penicillin G. Particulars: strain with SHV-11; FICI below 0.5 = synergy. It counts as cell-based. An excerpt:
(§4) FIGS. 2A-2M. (FIG. 2A) TEM mutations and their effects on stability (total energy) as predicted by FoldX. […] Dashed line indicates a total energy difference of 0.5 kcal/mol, the FoldX cut-off above which mutations are considered to be destabilizing. (FIG. 2B) Barplot mapping mutations in (FIG. 2A) to the TEM sequence and indicating occurrence. […] The bar heights correspond to the number of times a mutation occurs across different TEM variants (right-hand y-axis). The color coding is identical to that in (FIG. 2A). Red line indicates the TANGO scores (indicated on the left-hand y-axis), with peaks corresponding to APRs. (FIG. 2C) Mapping of mutations in (FIG. 2A) and (FIG. 2B) to the TEM structure (pdb 1xpb). Protein surface is shown in gray, color coding of mutations is identical to (FIG. 2A) and (FIG. 2B). (FIGS. 2D, 2E, and 2F) Temperature-dependent evolution of the Right-Angle Light Scattering (RALS) intensity during a temperature ramp, similar as in FIG. 1F for key mutants of TEM1, namely TEM-10 (FIG. 2D), TEM-30 (FIG. 2E) and TEM-155 (FIG. 2F). Experiments were shown in triplicate, single repeat is shown. (FIG. 2G) Schematic representation of the structure of the peptides. APR—Aggregation Prone Region, R—Arginine. (FIG. 2H) Ribbon representation of the superposition of the crystal structures of TEM (green, pdb id 1bt5) and SHV (blue, pdb id 1shv). The catalytic site of the beta-lactamase activity is indicated and location of APR3 is shown in red. (FIG. 2I) TANGO aggregation score and alignment of APR3 in TEM and SHV. (FIG. 2J) Fractional Inhibitory Concentration Index determination of 5 peptides versus penicillin on E. coli TEM-104. […] FICI values below 0.5 indicate synergy. Values between 0.5 and 1.0 indicate additivity and values greater than 1 indicate indifference between the combined substances. (FIG. 2K) Same as J for E. coli SHV-11. (FIG. 2L) Same as J for a kanamycin resistant E. coli strain. (FIG. 2M) FICI values for the TEM3.2 peptide on a range of E. coli strains.
(§5) Moreover, the core sequence of peptide TEM3.0 also occurs in the structurally related SHV β-lactamase ([…]). Although the C-terminal extension residues H and N have been replaced with physicochemically similar R and Q, respectively (FIG. 2H). […] To quantify the synergy between these four peptides and penicillin G, we performed a so-called checkerboard assay, which allows to compare the activity of two test compounds co-incubated (here peptide and a beta-lactam antibiotic), to their individual activities in isolation. The result from the assay is quantified as the Fractional Inhibitory Concentration Index (FICI), and it is generally accepted that values below 0.5 indicate synergistic effects between the compounds. As a control, we generated a peptide using the same design, but based on a previously identified APR from the β-galactosidase enzyme (BGAL)^16 from E. coli (APR=SVIIWSL, peptide sequence=[…]) that has a MIC value>100 μg/mL on E. coli strain UZ_TEM104. We evaluated the synergy of the peptides with penicillin G in clinical E. coli isolates carrying the TEM ([…]) or SHV enzymes ([…]). […] As a further control, we also performed a checkerboard assay with an E. coli strain that was resistant to the aminoglycoside kanamycin and observed no synergy between this unrelated antibiotic and our peptides (FIG. 2L), in line with the notion that we are inhibiting a beta-lactamase but not the aminoglycoside degrading enzyme. […] The list of strains included some that harbored only TEM or SHV, but others contained additional Ambler Class A (CTX-M or […]) or Class B (VIM and NDM) beta-lactamases. […] In contrast, the presence of the NDM-type […], that does have a high affinity for Ampicillin and that is completely distinct in sequence and structure from TEM and SHV, seemed to completely prevent the effect of the peptide on the beta-lactam sensitivity of the strains in which it occurred (see also further). […]

The subject of a further data set is E. coli TEM-104. The description is as above. The class given is cell-based. The conditions noted are these: strain with TEM; FICI below 0.5 = synergy.
Excerpt: as §4, §5

Another data set has as its system HEK293. It counts as cell-based, human.

As to Ac-RLTAFLHNRRPRLTAFLHNRR-NH2 [TEM3.0], in data set [1], the “enrichment of the TEM protein in inclusion bodies (western blot)” value is “clear enrichment of the TEM protein in IBs”. Further, the “accumulation of the SHV enzyme in inclusion bodies (western blot)” value in data set [2] is given as “not”. The “synergy with penicillin G (FICI)” value in the data set with E. coli SHV-11 is “not in a strain containing the SHV-11 enzyme”; in the data set with E. coli TEM-104 it was “clear synergy”.

For Ac-RLTAFLHNRRPRLTAFLRQRR-NH2 [TEM3.2], in data set [1], the “enrichment of the TEM protein in inclusion bodies (western blot)” value is “clear enrichment of the TEM protein in IBs”. In addition, in the data set with HEK293, the “cytotoxicity (Cell Titer Blue)” value is listed as “not cytotoxic”. For the same substance, the “accumulation of the SHV enzyme in inclusion bodies (western blot)” value in data set [2] is “accumulates in IBs”. The “synergy with penicillin G (FICI)” value with E. coli SHV-11 and with E. coli TEM-104 was “synergy” each time.
